Reference: PubChem BioAssay AID1963966 (Molecular Pharmacology Branch, DTP, NCI, 2024)

Tested on: 935938-334-R-J1-PDC spheroids with HUVEC/MSC, viability
Assay: Anticancer human tumor 935938-334-R-J1-PDC patient-derived small intestine adenocarcinoma cell line growth inhibition [PI3K]
Conditions: for viability, T/C: stronger effect = lower value
Text: Combinatorial screen of targeted agents with the PI3K inhibitors inavolisib, alpelisib, duvelisib, and copanlisib in multi-cell type tumor spheroids
A high-throughput screen of multi-cell type tumor spheroids was designed to identify active combinations of targeted small molecules and PI3K pathway inhibitors. Complex spheroids include a stromal component modeled by human endothelial cells (HUVEC) and fibroblasts modeled by human mesenchymal stem cells (MSCs). The concentration ranges selected for each drug and investigational agent were based upon clinically achievable concentrations if the clinical Cmax of the agent was known.
Compounds. The drugs and investigational agents: inavolisib (NSC800729), alpelisib (NSC765974), duvelisib (NSC772469), copanlisib (NSC816437), ipatasertib (NSC767898), afuresertib (NSC778305), talazoparib (NSC767125), sapanisertib (NSC764658), selumetinib (NSC741078), tovorafenib (DAY101, NSC766906), vemurafenib (NSC761431), ravoxertinib (NSC781343), sotorasib (NSC818433), MRTX1133 (NSC 836407), abemaciclib (NSC 768073), palbociclib (NSC758247), venetoclax (NSC 766270), SY5609 (NSC837396), enzalutamide (NSC755605), and darolutamide (NSC825331), were obtained from the National Cancer Institute (NCI) Developmental Therapeutics Program Chemical Repository. The FDA-approved anticancer drug set is available from the NCI Developmental Therapeutics Program. […] The stock solutions were prepared in dimethyl sulfoxide (DMSO, Sigma-Aldrich, St. Louis, MO, cat. D2650) at 800-fold the tested concentration and stored at -70 degrees C prior to their use. All drugs and investigational agents were tested over a range starting from a high concentration at or near the clinical Cmax and decreasing in half-log increments. If the clinical Cmax for an agent had not been determined, the highest concentration tested was 10 microM.
Cell Culture. All cells were maintained in an incubator at 37 degrees C and 5% CO2 with 95% humidity. The PDC lines were cultured according to standard operating procedures established by the NCI PDMR (https://pdmr.cancer.gov/sops/default.htm). All PDCs were thawed and cultured in Matrigel-coated flasks prepared with a working solution of 1X Ham's F-12 nutrient mix, without supplementation (Invitrogen, Waltham, MA, cat. 11765054), 100 U/mL penicillin-streptomycin (Invitrogen, cat. 15140122), and 2.5% Matrigel (Corning Inc., Corning, NY, cat. 354248) for the first three passages. The 354836-022-R-J1-PDC, 475296-252-R-J1-PDC, and 997726-040-R-J2-PDC lines were cultured in 6A media, which includes advanced DMEM/F-12 (Thermo Fisher Scientific, cat. 12634028), 10 mM HEPES (Thermo Fisher Scientific, cat. 15630080), 1X GlutaMAX supplement (Thermo Fisher Scientific, cat. 35050061), 0.1 mg/mL primocin (InvivoGen, San Diego, CA, cat. ant-pm-2), 10% defined fetal bovine serum, heat inactivated (HyClone Laboratories Inc., Logan, UT, cat. SH30070.03HI), 50% L-WRN conditioned media (ATCC, cat. CRL-3276), 1.25 mM N-Acetyl-L-cysteine (Sigma-Aldrich, cat. A9165), 10 mM nicotinamide (Sigma-Aldrich, cat. N0636), 1X B-27 supplement (Thermo Fisher Scientific, cat. 17504044), 1X N-2 supplement (Thermo Fisher Scientific, cat. 17502048), and 10 microM Y-27632 dihydrochloride (Tocris Bioscience, Bristol, United Kingdom, cat. 1254). The 624824-186-R-J2-PDC line was cultured in 6C/Colon 1B media, which includes all 6A media components plus 50 ng/mL human EGF recombinant protein (Thermo Fisher Scientific, cat. PHG0311). […]

[1] = curve of first compound, second compound 0.0316 µM
[2] = curve of first compound, second compound 0.1 µM
[3] = curve of first compound, second compound 0.316 µM
[4] = curve of first compound, second compound 1 µM
[5] = second compound 0.0316 µM, first compound 0.0316 µM
[6] = second compound 0.0316 µM, first compound 0.1 µM
[7] = second compound 0.0316 µM, first compound 0.316 µM
[8] = second compound 0.0316 µM, first compound 1 µM
[9] = second compound 0.0316 µM, first compound 3.16 µM
[10] = second compound 0.0316 µM, first compound 10 µM
[11] = second compound 0.1 µM, first compound 0.0316 µM
[12] = second compound 0.1 µM, first compound 0.1 µM
[13] = second compound 0.1 µM, first compound 0.316 µM
[14] = second compound 0.1 µM, first compound 1 µM
[15] = second compound 0.1 µM, first compound 3.16 µM
[16] = second compound 0.1 µM, first compound 10 µM
[17] = second compound 0.316 µM, first compound 0.0316 µM
[18] = second compound 0.316 µM, first compound 0.1 µM
[19] = second compound 0.316 µM, first compound 0.316 µM
[20] = second compound 0.316 µM, first compound 1 µM
[21] = second compound 0.316 µM, first compound 3.16 µM
[22] = second compound 0.316 µM, first compound 10 µM
[23] = second compound 1 µM, first compound 0.0316 µM
[24] = second compound 1 µM, first compound 0.1 µM
[25] = second compound 1 µM, first compound 0.316 µM
[26] = second compound 1 µM, first compound 1 µM
[27] = second compound 1 µM, first compound 3.16 µM
[28] = second compound 1 µM, first compound 10 µM
[29] = curve of first compound, second compound 3.16 µM
[30] = curve of first compound, second compound 10 µM
[31] = second compound 3.16 µM, first compound 0.0316 µM
[32] = second compound 3.16 µM, first compound 0.1 µM
[33] = second compound 3.16 µM, first compound 0.316 µM
[34] = second compound 3.16 µM, first compound 1 µM
[35] = second compound 3.16 µM, first compound 3.16 µM
[36] = second compound 3.16 µM, first compound 10 µM
[37] = second compound 10 µM, first compound 0.0316 µM
[38] = second compound 10 µM, first compound 0.1 µM
[39] = second compound 10 µM, first compound 0.316 µM
[40] = second compound 10 µM, first compound 1 µM
[41] = second compound 10 µM, first compound 3.16 µM
[42] = second compound 10 µM, first compound 10 µM
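Also: compound exposure lasted seven days before viability was read.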
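For viability, T/C in this document: percent of vehicle DMSO treated spheroid viability so 100% = untreated.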

CNC(=O)c1ccc(N2C(=S)N(c3ccc(C#N)c(C(F)(F)F)c3)C(=O)C2(C)C)cc1F + COc1c(OCCCN2CCOCC2)ccc2c3n(c(=NC(=O)c4cnc(N)nc4)nc12)CCN3
IC50 (curve of first compound, second compound 0.00316 µM): > 10 µM
IC50 (curve of first compound, second compound 0.01 µM): > 10 µM
IC50 [1]: > 10 µM
IC50 [2]: 0.0694 µM
IC50 [3]: < 0.0316 µM
IC50 [4]: < 0.0316 µM
viability, T/C (second compound 0.00316 µM, first compound 0.0316 µM): 89.8%
viability, T/C (second compound 0.00316 µM, first compound 0.1 µM): 76.3%
viability, T/C (second compound 0.00316 µM, first compound 0.316 µM): 74.8%
viability, T/C (second compound 0.00316 µM, first compound 1 µM): 66.8%
viability, T/C (second compound 0.00316 µM, first compound 3.16 µM): 103%
viability, T/C (second compound 0.00316 µM, first compound 10 µM): 93.4%
viability, T/C (second compound 0.01 µM, first compound 0.0316 µM): 87.6%
viability, T/C (second compound 0.01 µM, first compound 0.1 µM): 96.8%
viability, T/C (second compound 0.01 µM, first compound 0.316 µM): 102%
viability, T/C (second compound 0.01 µM, first compound 1 µM): 85.8%
viability, T/C (second compound 0.01 µM, first compound 3.16 µM): 104%
viability, T/C (second compound 0.01 µM, first compound 10 µM): 92.7%
viability, T/C [5]: 84.5%
viability, T/C [6]: 85.3%
viability, T/C [7]: 82.1%
viability, T/C [8]: 81%
viability, T/C [9]: 76.6%
viability, T/C [10]: 66.6%
viability, T/C [11]: 62.9%
viability, T/C [12]: 42.6%
viability, T/C [13]: 49.1%
viability, T/C [14]: 44.5%
viability, T/C [15]: 42.9%
viability, T/C [16]: 40.2%
viability, T/C [17]: 43.3%
viability, T/C [18]: 29.4%
viability, T/C [19]: 31.3%
viability, T/C [20]: 32.4%
viability, T/C [21]: 36.7%
viability, T/C [22]: 24.4%
viability, T/C [23]: 34.9%
viability, T/C [24]: 30.6%
viability, T/C [25]: 38.3%
viability, T/C [26]: 34.2%
viability, T/C [27]: 29.3%
viability, T/C [28]: 24.8%

COc1c(OCCCN2CCOCC2)ccc2c3n(c(=NC(=O)c4cnc(N)nc4)nc12)CCN3
viability, T/C (compound 0.00316 µM): 87.7% [middle of 8 runs]
viability, T/C (compound 0.01 µM): 93.9% [middle of 8 runs]
viability, T/C (compound 0.0316 µM): 82.8% [middle of 8 runs]
viability, T/C (compound 0.1 µM): 52.5% [middle of 8 runs]
viability, T/C (compound 0.316 µM): 38.6% [middle of 8 runs]
viability, T/C (compound 1 µM): 39% [middle of 8 runs]
IC50 (compound alone, run of 04/25/2023): 120 nM [middle of 8 runs]

CCCS(=O)(=O)Nc1ccc(F)c(C(=O)c2c[nH]c3ncc(-c4ccc(Cl)cc4)cc23)c1F + CC(Nc1ncnc2nc[nH]c12)c1cc2cccc(Cl)c2c(=O)n1-c1ccccc1
IC50 [1]: 6.71 µM
IC50 [2]: 6.81 µM
IC50 [3]: 6.86 µM
IC50 [4]: 6.77 µM
IC50 [29]: 6.38 µM
IC50 [30]: 5.62 µM
viability, T/C [5]: 107%
viability, T/C [6]: 100%
viability, T/C [7]: 140%
viability, T/C [8]: 102%
viability, T/C [9]: 95.2%
viability, T/C [10]: 26.3%
viability, T/C [11]: 88.2%
viability, T/C [12]: 98.7%
viability, T/C [13]: 95.9%
viability, T/C [14]: 94%
viability, T/C [15]: 108%
viability, T/C [16]: 26.5%
viability, T/C [17]: 99.8%
viability, T/C [18]: 94%
viability, T/C [19]: 111%
viability, T/C [20]: 110%
viability, T/C [21]: 96.3%
viability, T/C [22]: 27%
viability, T/C [23]: 97%
viability, T/C [24]: 105%
viability, T/C [25]: 109%
viability, T/C [26]: 118%
viability, T/C [27]: 91.6%
viability, T/C [28]: 28.5%
viability, T/C [31]: 109%
viability, T/C [32]: 91.6%
viability, T/C [33]: 99.9%
viability, T/C [34]: 117%
viability, T/C [35]: 84.3%
viability, T/C [36]: 28%
viability, T/C [37]: 91.2%
viability, T/C [38]: 86.5%
viability, T/C [39]: 91.6%
viability, T/C [40]: 97%
viability, T/C [41]: 78.1%
viability, T/C [42]: 21.9%

CC1(C)CCC(CN2CCN(c3ccc(C(=O)NS(=O)(=O)c4ccc(NCC5CCOCC5)c([N+](=O)[O-])c4)c(Oc4cnc5[nH]ccc5c4)c3)CC2)=C(c2ccc(Cl)cc2)C1 + Cc1nc(NC(=O)N2CCCC2C(N)=O)sc1-c1ccnc(C(C)(C)C(F)(F)F)c1
IC50 [1]: 6.77 µM
IC50 [2]: 7.42 µM
IC50 [3]: 6.51 µM
IC50 [4]: 5.32 µM
IC50 [29]: 4.25 µM
IC50 [30]: < 0.0316 µM
viability, T/C [5]: 85.1%
viability, T/C [6]: 97.9%
viability, T/C [7]: 91.5%
viability, T/C [8]: 80.6%
viability, T/C [9]: 87.7%
viability, T/C [10]: 30.7%
viability, T/C [11]: 81.9%
viability, T/C [12]: 97.5%
viability, T/C [13]: 89.3%
viability, T/C [14]: 99.4%
viability, T/C [15]: 101%
viability, T/C [16]: 34.6%
viability, T/C [17]: 96.3%
viability, T/C [18]: 99%
viability, T/C [19]: 76.5%
viability, T/C [20]: 55.2%
viability, T/C [21]: 92.4%
viability, T/C [22]: 29.8%
viability, T/C [23]: 82%
viability, T/C [24]: 75.5%
viability, T/C [25]: 72.4%
viability, T/C [26]: 57.4%
viability, T/C [27]: 70.8%
viability, T/C [28]: 25.4%
viability, T/C [31]: 52.3%
viability, T/C [32]: 67%
viability, T/C [33]: 53.5%
viability, T/C [34]: 58.6%
viability, T/C [35]: 60%
viability, T/C [36]: 26.2%
viability, T/C [37]: 38.1%
viability, T/C [38]: 42.1%
viability, T/C [39]: 36.6%
viability, T/C [40]: 44.4%
viability, T/C [41]: 48%
viability, T/C [42]: 31.4%
